Results as given in ChEMBL document CHEMBL4308841, “Synthesis, in vitro antiproliferative activity, and kinase inhibitory effects of pyrazole-containing diarylureas and diarylamides” (Eur J Med Chem, 2018).

These compounds were tested on M14 (assay: Growth inhibition of human M14 cells assessed as cell growth at 1 uM incubated for 48 hrs by sulforhodamine B assay relative to control). Settings: M14, 48 h, read-out: Activity.
Assay type: functional

SMILES | growth at 1 µM
COc1cc(Cl)cc(-c2nn(-c3cccc(NC(=O)Nc4ccc(Cl)c(C(F)(F)F)c4)c3)cc2-c2ccncc2)c1 | 65%

Each compound was assayed on A498 (assay: Growth inhibition of human A498 cells assessed as cell growth at 0.01 uM incubated for 48 hrs by sulforhodamine B assay relative to control). Settings: A498, 48 h, read-out: Activity.
Assay type: functional

SMILES | growth at 0.01 µM
COc1cc(Cl)cc(-c2nn(-c3cccc(NC(=O)Nc4ccc(Cl)c(C(F)(F)F)c4)c3)cc2-c2ccncc2)c1 | 57%

The compounds below were run on SNB-19 (assay: Growth inhibition of human SNB19 cells assessed as cell growth at 1 uM incubated for 48 hrs by sulforhodamine B assay relative to control). Settings: SNB-19, 48 h, read-out: Activity.
Assay type: functional

SMILES | growth at 1 µM
COc1cc(Cl)cc(-c2nn(-c3cccc(NC(=O)Nc4ccc(Cl)c(C(F)(F)F)c4)c3)cc2-c2ccncc2)c1 | 87%

What follows are compounds tested on NCI-H23 (assay: Growth inhibition of human NCI-H23 cells incubated for 48 hrs by sulforhodamine B assay). Settings: NCI-H23, 48 h, read-out: GI50.
Assay type: functional, cell-based

SMILES | GI50
COc1cc(Cl)cc(-c2nn(-c3cccc(NC(=O)Nc4ccc(Cl)c(C(F)(F)F)c4)c3)cc2-c2ccncc2)c1 | 1.36 µM

Same assay, conditions: NCI-H23, 48 h, read-out: LC50

SMILES | LC50
COc1cc(Cl)cc(-c2nn(-c3cccc(NC(=O)Nc4ccc(Cl)c(C(F)(F)F)c4)c3)cc2-c2ccncc2)c1 | > 100 µM

Same assay, conditions: NCI-H23, 48 h, read-out: TGI

SMILES | TGI
COc1cc(Cl)cc(-c2nn(-c3cccc(NC(=O)Nc4ccc(Cl)c(C(F)(F)F)c4)c3)cc2-c2ccncc2)c1 | 62.3 µM

Same assay, conditions: NCI-H23, 48 h, read-out: pGI50 (converted)

SMILES | GI50
COc1cc(Cl)cc(-c2nn(-c3cccc(NC(=O)Nc4ccc(Cl)c(C(F)(F)F)c4)c3)cc2-c2ccncc2)c1 | 1.35 µM

Same assay, conditions: NCI-H23, 48 h, read-out: pLC50 (converted)

SMILES | LC50
COc1cc(Cl)cc(-c2nn(-c3cccc(NC(=O)Nc4ccc(Cl)c(C(F)(F)F)c4)c3)cc2-c2ccncc2)c1 | > 100 µM

Same assay, conditions: NCI-H23, 48 h, read-out: pTGI (converted)

SMILES | TGI
COc1cc(Cl)cc(-c2nn(-c3cccc(NC(=O)Nc4ccc(Cl)c(C(F)(F)F)c4)c3)cc2-c2ccncc2)c1 | 6.17 µM

The compounds below were run on MOLT-4 (assay: Growth inhibition of human MOLT4 cells assessed as cell growth at 0.01 uM incubated for 48 hrs by sulforhodamine B assay relative to control). Settings: MOLT-4, 48 h, read-out: Activity.
Assay type: functional

SMILES | growth at 0.01 µM
COc1cc(Cl)cc(-c2nn(-c3cccc(NC(=O)Nc4ccc(Cl)c(C(F)(F)F)c4)c3)cc2-c2ccncc2)c1 | 99%

These compounds were tested on RXF 393 (assay: Growth inhibition of human RXF393 cells assessed as cell growth at 100 uM incubated for 48 hrs by sulforhodamine B assay relative to control). Settings: RXF 393, 48 h, read-out: Activity.
Assay type: functional

SMILES | growth at 100 µM
COc1cc(Cl)cc(-c2nn(-c3cccc(NC(=O)Nc4ccc(Cl)c(C(F)(F)F)c4)c3)cc2-c2ccncc2)c1 | -58%

Each compound was assayed on KM12 (assay: Growth inhibition of human KM12 cells incubated for 48 hrs by sulforhodamine B assay). Settings: KM12, 48 h, read-out: GI50.
Assay type: functional, cell-based

SMILES | GI50
COc1cc(Cl)cc(-c2nn(-c3cccc(NC(=O)Nc4ccc(Cl)c(C(F)(F)F)c4)c3)cc2-c2ccncc2)c1 | 0.555 µM

Same assay, conditions: KM12, 48 h, read-out: LC50 (the source's name)

SMILES | CC50
COc1cc(Cl)cc(-c2nn(-c3cccc(NC(=O)Nc4ccc(Cl)c(C(F)(F)F)c4)c3)cc2-c2ccncc2)c1 | 4 µM

Same assay, conditions: KM12, 48 h, read-out: TGI

SMILES | TGI
COc1cc(Cl)cc(-c2nn(-c3cccc(NC(=O)Nc4ccc(Cl)c(C(F)(F)F)c4)c3)cc2-c2ccncc2)c1 | 44.4 µM

Same assay, conditions: KM12, 48 h, read-out: pGI50 (converted)

SMILES | GI50
COc1cc(Cl)cc(-c2nn(-c3cccc(NC(=O)Nc4ccc(Cl)c(C(F)(F)F)c4)c3)cc2-c2ccncc2)c1 | 0.55 µM

Same assay, conditions: KM12, 48 h, read-out: pLC50 (the source's name) (converted)

SMILES | CC50
COc1cc(Cl)cc(-c2nn(-c3cccc(NC(=O)Nc4ccc(Cl)c(C(F)(F)F)c4)c3)cc2-c2ccncc2)c1 | 40.7 µM

Same assay, conditions: KM12, 48 h, read-out: pTGI (converted)

SMILES | TGI
COc1cc(Cl)cc(-c2nn(-c3cccc(NC(=O)Nc4ccc(Cl)c(C(F)(F)F)c4)c3)cc2-c2ccncc2)c1 | 4.47 µM

The compounds below were run on HCC 2998 (assay: Growth inhibition of human HCC2998 cells assessed as cell growth at 100 uM incubated for 48 hrs by sulforhodamine B assay relative to control). Settings: HCC 2998, 48 h, read-out: Activity.
Assay type: functional

SMILES | growth at 100 µM
COc1cc(Cl)cc(-c2nn(-c3cccc(NC(=O)Nc4ccc(Cl)c(C(F)(F)F)c4)c3)cc2-c2ccncc2)c1 | -75%

Each compound was assayed on NCI-H226 (assay: Growth inhibition of human NCI-H226 cells assessed as cell growth at 0.01 uM incubated for 48 hrs by sulforhodamine B assay relative to control). Settings: NCI-H226, 48 h, read-out: Activity.
Assay type: functional

SMILES | growth at 0.01 µM
COc1cc(Cl)cc(-c2nn(-c3cccc(NC(=O)Nc4ccc(Cl)c(C(F)(F)F)c4)c3)cc2-c2ccncc2)c1 | 97%

These compounds were tested on NCI-H322M (assay: Growth inhibition of human NCI-H322M cells assessed as cell growth at 1 uM incubated for 48 hrs by sulforhodamine B assay relative to control). Settings: read-out: Activity.
Assay type: functional

SMILES | growth at 1 µM
COc1cc(Cl)cc(-c2nn(-c3cccc(NC(=O)Nc4ccc(Cl)c(C(F)(F)F)c4)c3)cc2-c2ccncc2)c1 | 89%

These compounds were tested on NCI-H23 (assay: Growth inhibition of human NCI-H23 cells assessed as cell growth at 0.01 uM incubated for 48 hrs by sulforhodamine B assay relative to control). Settings: NCI-H23, 48 h, read-out: Activity.
Assay type: functional

SMILES | growth at 0.01 µM
COc1cc(Cl)cc(-c2nn(-c3cccc(NC(=O)Nc4ccc(Cl)c(C(F)(F)F)c4)c3)cc2-c2ccncc2)c1 | 90%

The compounds below were run on NCI-H460 (assay: Growth inhibition of human NCI-H460 cells assessed as cell growth at 100 uM incubated for 48 hrs by sulforhodamine B assay relative to control). Settings: NCI-H460, 48 h, read-out: Activity.
Assay type: functional

SMILES | growth at 100 µM
COc1cc(Cl)cc(-c2nn(-c3cccc(NC(=O)Nc4ccc(Cl)c(C(F)(F)F)c4)c3)cc2-c2ccncc2)c1 | -62%

The compounds below were run on T47D (assay: Growth inhibition of human T47D cells assessed as cell growth at 0.1 uM incubated for 48 hrs by sulforhodamine B assay relative to control). Settings: read-out: Activity.
Assay type: functional

SMILES | growth at 0.1 µM
COc1cc(Cl)cc(-c2nn(-c3cccc(NC(=O)Nc4ccc(Cl)c(C(F)(F)F)c4)c3)cc2-c2ccncc2)c1 | 103%

Each compound was assayed on IGROV-1 (assay: Growth inhibition of human IGROV1 cells assessed as cell growth at 0.1 uM incubated for 48 hrs by sulforhodamine B assay relative to control). Settings: IGROV-1, 48 h, read-out: Activity.
Assay type: functional

SMILES | growth at 0.1 µM
COc1cc(Cl)cc(-c2nn(-c3cccc(NC(=O)Nc4ccc(Cl)c(C(F)(F)F)c4)c3)cc2-c2ccncc2)c1 | 99%

What follows are compounds tested on UACC-62 (assay: Growth inhibition of human UACC62 cells assessed as cell growth at 1 uM incubated for 48 hrs by sulforhodamine B assay relative to control). Settings: UACC-62, 48 h, read-out: Activity.
Assay type: functional

SMILES | growth at 1 µM
COc1cc(Cl)cc(-c2nn(-c3cccc(NC(=O)Nc4ccc(Cl)c(C(F)(F)F)c4)c3)cc2-c2ccncc2)c1 | 82%

These compounds were tested on SN12C (assay: Growth inhibition of human SN12C cells assessed as cell growth at 0.1 uM incubated for 48 hrs by sulforhodamine B assay relative to control). Settings: read-out: Activity.
Assay type: functional

SMILES | growth at 0.1 µM
COc1cc(Cl)cc(-c2nn(-c3cccc(NC(=O)Nc4ccc(Cl)c(C(F)(F)F)c4)c3)cc2-c2ccncc2)c1 | 100%

What follows are compounds tested on KM12 (assay: Growth inhibition of human KM12 cells assessed as cell growth at 100 uM incubated for 48 hrs by sulforhodamine B assay relative to control). Settings: KM12, 48 h, read-out: Activity.
Assay type: functional

SMILES | growth at 100 µM
COc1cc(Cl)cc(-c2nn(-c3cccc(NC(=O)Nc4ccc(Cl)c(C(F)(F)F)c4)c3)cc2-c2ccncc2)c1 | -70%

The compounds below were run on MDA-MB-435 (assay: Growth inhibition of human MDA-MB-435 cells assessed as cell growth at 0.1 uM incubated for 48 hrs by sulforhodamine B assay relative to control). Settings: MDA-MB-435, 48 h, read-out: Activity.
Assay type: functional

SMILES | growth at 0.1 µM
COc1cc(Cl)cc(-c2nn(-c3cccc(NC(=O)Nc4ccc(Cl)c(C(F)(F)F)c4)c3)cc2-c2ccncc2)c1 | 93%
